Experimental data reported in ChEMBL document CHEMBL4196045, “Identification of cisapride as new inhibitor of putrescine uptake in Trypanosoma cruzi by combined ligand- and structure-based virtual screening” (Eur J Med Chem, 2018).
Active and inactive are the calls of the source. The calls are words filed in the database; no cut-off is given here.

Tests used:
Trypanosoma cruzi [1] = experiment: Antitrypanosomal activity against Trypanosoma cruzi Y epimastigotes after 7 days by hemocytometry; assay type: functional, organism-based; details: 168 h
[2] = biological target: T1, Putative amino acid transporter PAT12 (Trypanosoma cruzi) (UniProt Q6QT93); experiment: Inhibition of Trypanosoma cruzi Y epimastigotes PAT12 assessed as reduction in initial velocity of [14C]-putrescine uptake at 50 uM in presence of non-radioactive putrescine by liquid scintillation counting method
T1 sequence (whole entry): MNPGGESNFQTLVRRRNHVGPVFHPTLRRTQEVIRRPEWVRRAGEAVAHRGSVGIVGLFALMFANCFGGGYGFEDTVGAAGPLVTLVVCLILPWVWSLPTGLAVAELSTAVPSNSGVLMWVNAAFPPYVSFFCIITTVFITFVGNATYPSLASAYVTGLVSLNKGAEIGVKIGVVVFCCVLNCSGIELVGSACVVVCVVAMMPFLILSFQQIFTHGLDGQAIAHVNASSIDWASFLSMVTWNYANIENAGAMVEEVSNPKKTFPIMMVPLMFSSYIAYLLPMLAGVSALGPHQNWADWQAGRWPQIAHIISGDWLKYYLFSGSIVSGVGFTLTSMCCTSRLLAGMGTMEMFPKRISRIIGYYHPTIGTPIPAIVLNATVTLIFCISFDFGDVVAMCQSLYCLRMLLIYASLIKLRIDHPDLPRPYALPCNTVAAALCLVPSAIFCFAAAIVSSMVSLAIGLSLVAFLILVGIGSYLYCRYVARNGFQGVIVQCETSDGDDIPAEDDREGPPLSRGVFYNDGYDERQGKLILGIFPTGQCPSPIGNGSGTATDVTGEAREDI

Trypanosoma cruzi [3] = experiment: Inhibition of Trypanosoma cruzi Y epimastigotes AAAP411 assessed as reduction in [1,4-14C]-arginine uptake in presence of non-radioactive arginine by liquid scintillation counting method
Trypanosoma cruzi [4] = experiment: Antitrypanosomal activity against Trypanosoma cruzi Y epimastigotes at 100 uM after 7 days by hemocytometry; assay type: functional, organism-based
Trypanosoma cruzi [5] = experiment: Antitrypanosomal activity against Trypanosoma cruzi Y epimastigotes at 200 uM after 7 days by hemocytometry; assay type: functional, organism-based

| IC50 (Trypanosoma cruzi [1]) | inhibition [2] | inhibition (Trypanosoma cruzi [3]) | Compound | Activity (Trypanosoma cruzi [4]) | Activity (Trypanosoma cruzi [5]) |
| --- | --- | --- | --- | --- | --- |
| 41.1 µM | inactive | inactive | NCc1ccccc1OC1CCCC1 | Active | – |
| – | inactive | – | CN(CCCOc1ccc2c(c1)OCO2)C1CCC(CO)CC1 (stereo not drawn) | – | inactive |
| – | inactive | – | Cc1cccc(C)c1OCC(C)N (racemic) | – | inactive |
